Among the data in patent US11046699B2, “Pyrazolo-pyrimidin-amino-cycloalkyl compounds and their therapeutic uses” (RAPT THERAPEUTICS, INC., priority 2018, dated 2021) are IC50 values, retold here.

Chain of GCN2 (Q9P2K8 whole entry): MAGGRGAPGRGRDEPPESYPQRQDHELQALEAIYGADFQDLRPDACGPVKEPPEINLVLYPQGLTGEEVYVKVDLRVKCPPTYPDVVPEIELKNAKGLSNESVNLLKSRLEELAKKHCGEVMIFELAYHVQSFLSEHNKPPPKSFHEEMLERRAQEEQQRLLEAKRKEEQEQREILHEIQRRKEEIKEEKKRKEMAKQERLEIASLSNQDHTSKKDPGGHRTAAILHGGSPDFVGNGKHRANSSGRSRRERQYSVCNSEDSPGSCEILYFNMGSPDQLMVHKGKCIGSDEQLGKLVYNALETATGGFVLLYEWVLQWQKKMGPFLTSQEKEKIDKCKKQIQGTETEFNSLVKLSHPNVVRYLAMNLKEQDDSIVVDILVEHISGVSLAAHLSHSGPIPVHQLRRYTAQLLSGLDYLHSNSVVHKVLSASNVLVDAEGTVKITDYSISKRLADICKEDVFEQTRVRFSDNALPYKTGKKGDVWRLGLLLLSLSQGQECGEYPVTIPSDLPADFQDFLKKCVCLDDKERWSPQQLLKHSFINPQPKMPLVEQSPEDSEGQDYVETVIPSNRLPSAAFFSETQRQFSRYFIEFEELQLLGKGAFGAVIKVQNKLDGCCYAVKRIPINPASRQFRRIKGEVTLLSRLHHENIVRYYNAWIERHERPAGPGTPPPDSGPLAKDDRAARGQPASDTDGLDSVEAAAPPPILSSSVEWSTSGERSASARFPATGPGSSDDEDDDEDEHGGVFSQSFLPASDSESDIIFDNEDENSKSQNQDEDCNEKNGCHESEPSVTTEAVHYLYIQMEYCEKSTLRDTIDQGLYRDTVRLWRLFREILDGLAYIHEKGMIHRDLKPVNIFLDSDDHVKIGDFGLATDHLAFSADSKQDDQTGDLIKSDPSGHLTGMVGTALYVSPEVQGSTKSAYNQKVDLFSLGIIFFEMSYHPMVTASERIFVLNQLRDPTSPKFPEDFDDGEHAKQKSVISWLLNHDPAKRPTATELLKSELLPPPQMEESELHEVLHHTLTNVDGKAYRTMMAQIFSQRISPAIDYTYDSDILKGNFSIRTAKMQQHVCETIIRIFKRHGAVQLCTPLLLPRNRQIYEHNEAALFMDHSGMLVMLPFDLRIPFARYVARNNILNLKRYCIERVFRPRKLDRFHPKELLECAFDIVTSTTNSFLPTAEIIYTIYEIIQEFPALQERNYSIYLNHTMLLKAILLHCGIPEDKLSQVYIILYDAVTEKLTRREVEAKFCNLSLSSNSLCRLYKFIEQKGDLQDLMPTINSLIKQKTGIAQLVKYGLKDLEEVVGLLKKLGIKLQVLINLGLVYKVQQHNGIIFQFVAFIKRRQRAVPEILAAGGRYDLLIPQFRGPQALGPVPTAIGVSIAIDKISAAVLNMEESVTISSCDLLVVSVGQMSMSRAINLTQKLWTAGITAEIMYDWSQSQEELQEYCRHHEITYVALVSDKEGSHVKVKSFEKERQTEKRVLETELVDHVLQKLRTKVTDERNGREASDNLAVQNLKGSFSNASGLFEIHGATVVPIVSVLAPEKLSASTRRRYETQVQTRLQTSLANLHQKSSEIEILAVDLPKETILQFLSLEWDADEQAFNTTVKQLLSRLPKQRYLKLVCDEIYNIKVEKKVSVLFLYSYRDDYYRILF

For one experiment, the target named is GCN2 (Homo sapiens, UniProt Q9P2K8). The experiment is described as follows: GCN2 enzymatic endpoint assay: phosphorylation of GFP-eIF2α measured by TR-FRET (Lanthascreen). In kind it is biochemical. To be noted: GCN2 biochemical IC50; 4 nM GCN2, 2 μM ATP, 80 nM GFP-eIF2α, 90 min RT; read-out: GCN2 activity. In short, it runs like this:
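Read-out is the TR-FRET ratio of acceptor signal at 520 nm to terbium donor at 495 nm, rising with antibody binding to phosphorylated GFP-eIF2α. Endpoint format: 2 μM ATP, 80 nM substrate, 90 minutes at room temperature, EDTA stop.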
Turning to `CNC(=O)[C@]1(C)CC[C@@H](Nc2ncc3c(Br)nn(-c4cc(C#N)c5ncccc5c4)c3n2)C1` (single isomer, unassigned) [Example 23], the IC50 is less than 25 nM.

Take `CNC(=O)[C@]1(C)CC[C@@H](Nc2ncc3c(Br)nn(-c4ccc(-c5nnc(C)o5)c(CO)c4)c3n2)C1` [Example 58, (1R,3R)-3-((3-bromo-1-(3-(hydroxymethyl)-4-(5-methyl-1,3,4-oxadiazol-2-yl)phenyl)-1H-pyrazolo[3,4-d]pyrimidin-6-yl)amino)-N,1-dimethylcyclopentane-1-carboxamide]: the IC50 fell in the range of 25 to 200 nM.

For the molecule `CNC(=O)C1(C)CC[C@@H](Nc2ncc3c(Br)nn(-c4ccc(-c5cccnc5)c(C#N)c4)c3n2)C1` (stereo partly drawn) [Example 44, (3R)-3-((3-bromo-1-(3-cyano-4-(pyridin-3-yl)phenyl)-1H-pyrazolo[3,4-d]pyrimidin-6-yl)amino)-N,1-dimethylcyclopentane-1-carboxamide; 2,2,2-trifluoroacetic acid], the IC50 was 25 to 200 nM.

With `CNC(=O)[C@]1(C)CC[C@@H](Nc2ncc3c(Br)nn(-c4ccc5ncccc5c4)c3n2)C1` (single isomer, unassigned) [Example 18], the IC50 was 25 to 200 nM.

With `Cc1nnc(-c2ccc(-n3nc(Br)c4cnc(N[C@@H]5CC[C@@](C)(O)C5)nc43)cc2C#N)s1` [Example 67, 5-(3-bromo-6-(((1R,3R)-3-hydroxy-3-methylcyclopentyl)amino)-1H-pyrazolo[3,4-d]pyrimidin-1-yl)-2-(5-methyl-1,3,4-thiadiazol-2-yl)benzonitrile], the IC50 is less than 25 nM.

Staying with this experiment, now noted: tested as described in Example 77; compound and/or hydrochloride, dihydrochloride or trifluoroacetic acid salt; read-out: IC 50 Activity.
For the molecule `C[C@@H]1CN(C(=O)[C@@H]2CC[C@@H](Nc3ncc4c(Br)nn(-c5ccc6ncccc6c5)c4n3)C2)C[C@@H](C)O1` [((1R,3R)-3-((3-bromo-1-(quinolin-6-yl)-1H-pyrazolo[3,4-d]pyrimidin-6-yl)amino)cyclo-pentyl)((2R,6R)-2,6-dimethylmorpholino) methanone], the IC50 was in the range of 25 to 200 nM.

Turning to `CNC(=O)[C@@H]1CC[C@@H](Nc2ncc3c(Br)nn(-c4cnc5ncccc5c4)c3n2)C1` [(1R,3R)-3-[[3-bromo-1-(1,8-naphthyridin-3-yl)pyrazolo[3,4-d]pyrimidin-6-yl]amino]-N-methyl-cyclopentanecarboxamide], the IC50 was in the range of 25 to 200 nM.

As to `CNC(=O)[C@]1(C)CC[C@@H](Nc2ncc3c(Br)nn(-c4cc(CN5CCCS5(=O)=O)c5ncccc5c4)c3n2)C1` [(1R,3R)-3-[[3-bromo-1-[8-[(1,1-dioxo-1,2-thiazolidin-2-yl)methyl]-6-quinolyl]pyrazolo[3,4-d]pyrimidin-6-yl]amino]-N,1-dimethyl-cyclopentanecarboxamide], the IC50 lay in the range of 25 to 200 nM.

With `N#Cc1cc(-n2nc(Br)c3cnc(N[C@@H]4CC[C@@H](C(=O)N5CC(F)C5)C4)nc32)cc2cccnc12` [6-(3-bromo-6-(((1R,3R)-3-(3-fluoroazetidine-1-carbonyl)cyclopentyl)amino)-1H-pyrazolo [3,4-d]pyrimidin-1-yl)quinoline-8-carbonitrile], the IC50 is less than 25 nM.

For the molecule `CNC(=O)[C@]1(C)CC[C@@H](Nc2ncc3c(Br)nn(-c4ccc5ncc(CNCCC#N)cc5c4)c3n2)C1` [(1R,3R)-3-[[3-bromo-1-[3-[(2-cyanoethyl-amino)methyl]-6-quinolyl]pyrazolo[3,4-d]pyrimidin-6-yl]amino]-N,1-dimethyl-cyclo-pentanecarboxamide], the IC50 fell in the range of 25 to 200 nM.

As to `CNC(=O)[C@]1(C)CC[C@@H](Nc2ncc3c(Br)nn(-c4ccc(-c5ncco5)c(OCC5CNC5)c4)c3n2)C1` [(1R,3R)-3-[[1-[3-(azetidin-3-ylmethoxy)-4-oxazol-2-yl-phenyl]-3-bromo-pyrazolo [3,4-d]pyrimidin-6-yl]amino]-N,1-dimethyl-cyclopentanecarboxamide], the IC50 was in the range of 25 to 200 nM.

For the molecule `CNC(=O)[C@]1(C)CCC(Nc2ncc3c(Br)nn(-c4cnc(-c5nnc(C)s5)c(F)c4)c3n2)C1` (stereo partly drawn) [(1R)-3-[[3-bromo-1-[5-fluoro-6-(5-methyl-1,3,4-thiadiazol-2-yl)-3-pyridyl]pyrazolo [3,4-d]pyrimidin-6-yl]amino]-N,1-dimethyl-cyclopentanecarboxamide], the IC50 is 25 to 200 nM.

Regarding `CNC(=O)[C@]1(C)CC[C@@H](Nc2ncc3c(Br)nn(-c4ccc(-c5nnc(C(=O)N6CCOCC6)s5)cc4)c3n2)C1` [(1R,3R)-3-[[3-bromo-1-[4-[5-(morpholine-4-carbonyl)-1,3,4-thiadiazol-2-yl]phenyl]pyrazolo[3,4-d]pyrimidin-6-yl]amino]-N,1-dimethyl-cyclopentanecarboxamide], the IC50 was 25 to 200 nM.

With `CC1(C(=O)N2CC3CCC(C2)O3)CC[C@@H](Nc2ncc3c(Br)nn(-c4cc(F)c5ncccc5c4)c3n2)C1` (stereo partly drawn) [[(3R)-3-[[3-bromo-1-(8-fluoro-6-quinolyl)pyrazolo[3,4-d]pyrimidin-6-yl]amino]-1-methyl-cyclopentyl]-(8-oxa-3-azabicyclo [3.2.1]octan-3-yl)methanone], the IC50 was less than 25 nM.

Regarding `CNC(=O)[C@]1(C)CC[C@@H](Nc2ncc3c(Br)nn(-c4cc(CO)c5ncccc5c4)c3n2)C1` [(1R,3R)-3-[[3-bromo-1-[8-(hydroxy-methyl)-6-quinolyl]pyrazolo[3,4-d]pyrimidin-6-yl]amino]-N,1-dimethyl-cyclopentanecarboxamide], the IC50 is less than 25 nM.

With `CNC(=O)[C@]1(C)CC[C@@H](Nc2ncc3c(Br)nn(-c4ccc5nc(N6CCOCC6)ncc5c4)c3n2)C1` [(1R,3R)-3-[[3-bromo-1-(2-morpholino-quinazolin-6-yl)pyrazolo[3,4-d]pyrimidin-6-yl]amino]-N,1-dimethyl-cyclopentane-carboxamide; 2,2,2-trifluoroacetic acid], the IC50 lay in the range of 25 to 200 nM.

With `CNC(=O)[C@]1(C)CC[C@@H](Nc2ncc3c(Br)nn(-c4ccc(-c5nnc(C(=O)N(C)CCN(C)C)s5)cc4)c3n2)C1` [5-[4-[3-bromo-6-[[(1R,3R)-3-methyl-3-(methylcarbamoyl)cyclopentyl]amino]pyrazolo[3,4-d]pyrimidin-1-yl]phenyl]-N-[2-(dimethylamino)ethyl]-N-methyl-1,3,4-thiadiazole-2-carboxamide], the IC50 was in the range of 25 to 200 nM.

Turning to `Cc1cn2c(n1)CN(C(=O)[C@@H]1CC[C@@H](Nc3ncc4c(Br)nn(-c5cc(F)c6ncccc6c5)c4n3)C1)CC2` [[(1R,3R)-3-[[3-bromo-1-(8-fluoro-6-quinolyl)pyrazolo[3,4-d]pyrimidin-6-yl]amino]cyclo-pentyl]-(2-methyl-6,8-dihydro-5H-imidazo [1,2-a]pyrazin-7-yl)methanone], the IC50 was in the range of 25 to 200 nM.

Regarding `CNC(=O)[C@]1(C)CC[C@@H](Nc2ncc3c(Br)nn(-c4cnc5c(c4)OCC(=O)N5C)c3n2)C1` [(1R,3R)-3-[[3-bromo-1-(4-methyl-3-oxo-pyrido[3,2-b][1,4]oxazin-7-yl)pyrazolo [3,4-d]pyrimidin-6-yl]amino]-N,1-dimethyl-cyclopentanecarboxamide], the IC50 lay in the range of 25 to 200 nM.

`CNC(=O)C1(C)CC[C@@H](Nc2ncc3c(Br)nn(-c4cccc(CCCO)c4)c3n2)C1` (stereo partly drawn) [(3R)-3-[[3-bromo-1-[3-(3-hydroxypropyl)phenyl]pyrazolo[3,4-d]pyrimidin-6-yl]amino]-N,1-dimethyl-cyclopentane-carboxamide]: the IC50 lay in the range of 25 to 200 nM.

Regarding `N#Cc1cc(-n2nc(Br)c3cnc(N[C@@H]4CC[C@@H](C(=O)N5CCN(C(=O)C6CC6)CC5)C4)nc32)cc2cccnc12` [6-(3-bromo-6-(((1R,3R)-3-(4-(cyclopropanecarbonyl)piperazine-1-carbonyl)cyclopentyl)amino)-1H-pyrazolo [3,4-d]pyrimidin-1-yl)quinoline-8-carbonitrile], the IC50 was in the range of 25 to 200 nM.

As to `CNC(=O)[C@]1(C)CC[C@@H](Nc2ncc3c(Br)nn(-c4cc(C#N)cc(OCC5CNC5)c4)c3n2)C1` [(1R,3R)-3-[[1-[3-(azetidin-3-ylmethoxy)-5-cyano-phenyl]-3-bromo-pyrazolo[3,4-d]pyrimidin-6-yl]amino]-N,1-dimethyl-cyclopentanecarboxamide], the IC50 was less than 25 nM.

`CNC(=O)[C@]1(C)CC[C@@H](Nc2ncc3c(Br)nn(-c4cc(CCNC(=O)/C=C/CN(C)C)c5ncccc5c4)c3n2)C1` [(1R,3R)-3-[[3-bromo-1-[8-[2-[[(E)-4-(dimethylamino)but-2-enoyl]amino]ethyl]-6-quinolyl]pyrazolo[3,4-d]pyrimidin-6-yl]amino]-N,1-dimethyl-cyclopentane-carboxamide]: the IC50 lay within 25 to 200 nM.

With `C[C@@]1(C(=O)N2CCN3C(=O)CC[C@H]3C2)CC[C@@H](Nc2ncc3c(Br)nn(-c4cc(F)c5ncccc5c4)c3n2)C1` [(8aS)-2-[(1R,3R)-3-[[3-bromo-1-(8-fluoro-6-quinolyl)pyrazolo[3,4-d]pyrimidin-6-yl]amino]-1-methyl-cyclopentanecarbonyl]-1,3,4,7,8,8a-hexahydropyrrolo[1,2-a]pyrazin-6-one], the IC50 is 25 to 200 nM.

As for `C=CC(=O)NCCc1cc(-n2nc(Br)c3cnc(N[C@@H]4CC[C@@](C)(C(=O)NC)C4)nc32)cc2cccnc12` [(1R,3R)-3-[[3-bromo-1-[8-[2-(prop-2-enoylamino)ethyl]-6-quinolyl]pyrazolo [3,4-d]pyrimidin-6-yl]amino]-N,1-dimethyl-cyclopentanecarboxamide], the IC50 fell in the range of 25 to 200 nM.

On to `CNC(=O)[C@]1(C)CC[C@@H](Nc2ncc3c(Br)nn(-c4ccc5c(c4)OC(C)C(=O)N5C)c3n2)C1` (stereo partly drawn) [(1R,3R)-3-[[3-bromo-1-(2,4-dimethyl-3-oxo-1,4-benzoxazin-7-yl)pyrazolo [3,4-d]pyrimidin-6-yl]amino]-N,1-dimethyl-cyclopentanecarboxamide], for which the IC50 lay within 25 to 200 nM.

For the molecule `Fc1cc(-n2nc(Br)c3cnc(NC4CCOC4)nc32)cc2cccnc12` (stereo not drawn) [3-bromo-1-(8-fluoro-6-quinolyl)-N-tetrahydrofuran-3-yl-pyrazolo[3,4-d] pyrimidin-6-amine], the IC50 was in the range of 25 to 200 nM.
